According to ChEMBL document CHEMBL3232817, “Structural elucidation and synthesis of vialinin C, a new inhibitor of TNF-α production” (Bioorg Med Chem, 2014):

Tested on: RBL-2H3
Experiment: Inhibition of TNF-alpha production in rat RBL2H3 cells
Type: functional, cell-based

Structure (SMILES)	IC50
O=C(Oc1c(-c2ccc(O)cc2)c(O)c2oc3cc(O)c(O)cc3c2c1OC(=O)c1ccc(O)cc1)c1ccc(O)cc1	890 nM
O=C(Oc1c(OC(=O)c2ccc(O)cc2)c(-c2ccc(O)cc2)c(O)c(O)c1-c1ccc(O)cc1)c1ccc(O)cc1	3.5 nM
O=C(Cc1ccccc1)Oc1c(OC(=O)Cc2ccccc2)c(-c2ccc(O)cc2)c(O)c(O)c1-c1ccc(O)cc1 [VIALININ A]	0.25 nM
O=C(Cc1ccccc1)Oc1c(-c2ccc(O)cc2)c(O)c2oc3cc(O)c(O)cc3c2c1OC(=O)Cc1ccccc1 [VIALININ B]	0.05 nM
